In patent US20240352415A1, “METHODS FOR THE GENERATION OF HUMAN RETINAL GANGLION CELLS AND COMPOSITIONS, ASSAYS, DEVICES, AND KITS COMPRISING SAME” (priority 2021, published 2024):
Entries after “also recorded” stand apart in the source; their conditions may differ.

How the values were obtained:
[1] = system: CONCEPT telencephalon-eye organoids; test: Inhibition of FGF signaling in CONCEPT telencephalon-eye organoids with FGFR and MEK inhibitors (immunostaining readout); type: cell-based, human; settings: inhibitor in culture medium starting on day 15, harvested day 24; PD 161570 1 μM, PD 0325901 2 μM; DMSO control
Protocol: CONCEPT telencephalon-eye organoids were generated as follows. A humidified incubator at 37° C. with 5% C02 was used for cell culture. H1 hESCs or iPSCs that were passaged using ReLeSR two or three days before experiments were detached using Dispase (GIBCO 17105041) and then harvested by centrifugation. After that, the cell pellets were suspended in ice-cold Matrigel. After gelling at 37° C. for 15-20 minutes, the hESC/Matrigel clump was gently dispersed in a N2B27 Medium (DMEM/F12+GlutaMAX (GIBCO):Neurobasal medium (GIBCO)=1:1, 0.5×B27 supplement (GIBCO), 0.5×N2 supplement (GIBCO), 0.1 mM β-mercaptoethanol, and 0.2 mM L-GlutaMax) for floating culture. With the starting day of cell differentiation designated as day 0, cysts with a single lumen formed on day 1. On days 3-5, individual cysts were manually picked using a curved Pasteur pipets under an inverted microscope and then seeded onto Matrigel-coated 24-well plates at a density of 2-6 cysts per well. Cysts spontaneously attached to the culture surface and grew. […] Culture mediums were changed every two or three days. To inactivate FGF signaling in CONCEPT organoids, FGFR1/2/3 inhibitor PD 161570 (1 μM; Tocris) and MEK1/2 inhibitor PD 0325901 (2 μM; Tocris) were supplemented to the culture medium staring on day 15. DMSO was used as a control. Treated CONCEPT organoids were harvested on day 24. CONCEPT telencephalon-eye organoids were fixed in 4% PFA for 15-30 minutes at room temperature and processed for immunostaining. These primary antibodies were used: […] Primary antibodies were visualized using Alexa Fluor 488-, 568-, and 647-conjugated secondary antibodies and imaged using a Zeiss AxioObserver Z1 microscope. […] In dual-color immunohistochemistry for PAX2 and FGF8, FGF8 was visualized using AP-conjugated anti mouse secondary antibody (Invitrogen A16038), and PAX2 was detected by biotin-conjugated anti rabbit secondary antibody (Invitrogen B2770) followed by […]-conjugated streptavidin (ThermoScientific 21130).

[2] = system: voltage-gated potassium channels
[3] = system: voltage-gated sodium channels; type: cell-based, human

Structure (SMILES) | RGC somas and directional axon growth marked by CNTN2 expression [1] | optic disc cells marked by moderate-level PAX2 expression at the outer regions [1] | optic stalk cells marked by high-level PAX2 expression at the inner zone [1] | retinal (neuroretinal) progenitors marked by VSX2 expression [1] | effect on amplitude of outward currents [2] | mean IK±SD at 60 mV (outward potassium current amplitude) [2] | effect on inward currents [3] | mean INa+SD at −10 mV (inward sodium current amplitude) [3]
CCN(CC)CCCCNc1ncc2cc(-c3c(Cl)cccc3Cl)c(NC(=O)NC(C)(C)C)nc2n1 [PD 161570] | drastically reduced or nearly absent | severely reduced | reduced | reduced | – | – | – | –
O=C(NOC[C@H](O)CO)c1ccc(F)c(F)c1Nc1ccc(I)cc1F [PD 0325901] | substantially reduced or nearly absent; also recorded: drastically reduced | nearly absent | largely remained | largely remained | – | – | – | –
CC[N+](CC)(CC)CC.[Cl-] [TEA, Tetraethylammonium-chloride] | – | – | – | – | significantly reduced | 279±201 pA | – | –
NC1=N[C@H](O)[C@H]2[C@H]3O[C@]4(O)O[C@@H]([C@@H](O)[C@@]2(N1)[C@@H]4O)[C@]3(O)CO [TTX, Tetrodotoxin-citrate] | – | – | – | – | – | – | abolished all inward currents | −18.3±13 pA
